The record followed here is patent publication US6130215A, “Piperazinylalkylthiopyrimidine derivatives, pharmaceutical compositions containing the same and a process for the preparation of the novel compounds” (Egis Gyoyszergyar RT, priority 1995, dated 2000).

A value given as a limit tells only on which side of the number the result lay.

The target of experiment [1] is T1, 5-HT2A receptor (Oryctolagus cuniculus, UniProt G1SYA7).
T1 construct: The thoracic aorta segment after the aortic arch was removed; from tissue; host or cells: rabbit thoracic aorta, helical strips
T1 sequence (G1SYA7 1-469): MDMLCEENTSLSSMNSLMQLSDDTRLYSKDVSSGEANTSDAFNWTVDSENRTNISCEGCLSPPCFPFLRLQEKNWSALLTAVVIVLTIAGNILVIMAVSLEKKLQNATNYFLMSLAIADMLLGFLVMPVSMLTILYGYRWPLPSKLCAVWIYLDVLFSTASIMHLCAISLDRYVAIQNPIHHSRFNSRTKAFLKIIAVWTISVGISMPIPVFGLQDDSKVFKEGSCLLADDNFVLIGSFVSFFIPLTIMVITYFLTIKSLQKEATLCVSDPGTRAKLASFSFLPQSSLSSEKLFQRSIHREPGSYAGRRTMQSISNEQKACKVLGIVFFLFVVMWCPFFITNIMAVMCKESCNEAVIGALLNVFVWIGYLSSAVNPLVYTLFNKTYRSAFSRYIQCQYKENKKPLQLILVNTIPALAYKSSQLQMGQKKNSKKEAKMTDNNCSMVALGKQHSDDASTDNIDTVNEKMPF
As to the kind of experiment: 5-HT2A receptor antagonistic effect: inhibition of 5-HT-evoked contractions on isolated rabbit aortic strips. It counts as cell-based, rabbit (New-Zealand, male, white). Particulars: 5-HT 10^-6 M; phenoxybenzamine 10^-8 M; tranylcypramine 10^-7 M; 10 minutes incubation. As for the experimental part:
New-Zealand, male, white rabbits weighing 2.0 to 2.5 kg were killed by a blow on the head. The thoracic aorta segment after the aortic arch was removed and placed into a Krebs' solution (NaCl 118 mM, KCl 4.6 mM, NaHCO3 25 mM, glucose 10.5 mM, […] 1 mM, KH2PO4 1 mM, CaCl2 2.6 mM). The aorta was carefully cleaned from fat and connective tissue, and was cut into 3 mm wide and 30 mm long helical strips. Four strips were obtained from each rabbit. The strips were equilibrated at 37° C. for 60 minutes in an organ chamber filled with Krebs' solution. The strips were also oxygenated by bubbling carbogen gas (5% of carbon dioxide and 95% of oxygen) through the solution. The strips were stretched by 1 g tension.
The contractions were measured by a Hugo Sachs K-30 type strain gauge, and were registered on a Multicorder type polygraph. During the last 40 minutes of the equilibration, the MAO enzym inhibitor tranylcypramine (10^-7 M) /chemical name: (±)-trans-2-phenylcyclopropylamine/ was also added to the bath.
Any alpha-adrenergic effects of the test compounds were eliminated by 10^-8 M of phenoxybenzamine /N-(2-chloroethyl)-N-(1-methyl-2-phenoxyethyl)benzylamine/ /Clancy et al., J. Pharm. Exp. Ther., 233, 761 (1985). Testing of the serotonergic antagonistic effect was started at the 90th minute of incubation. The stability and reproducibility of the contractile response of the aortic strips to serotonin was tested by two consecutive application and wash-out procedures of 10^-6 M concentration of 5-HT, 40 minutes apart. […] 30 minutes after the second testing, a preset concentration of the test compound was added to the bath, and, after a 10 minutes incubation time, the response to 10^-6 M of 5-HT was determined in the presence of the compound to be tested.
Two different concentrations of a given compound were tested on each aortic strip by the above method. Reproducibility of the control 5-HT-evoked response was checked between testing the two concentrations of the compound.
(§1) IC50 was calculated by nonlinear curve fitting of the inhibitory effect of increasing concentrations of the test compound.

The test system of experiment [2] is rat stomach fundus smooth muscle. As to the kind of experiment: Inhibition of serotonin-induced contractions of isolated rat stomach fundus smooth muscle. The experiment is classed as cell-based, rat (male Wistar). Particulars: 5-HT 10^-7 M, 37° C., read-out: Inhibition of 5-HT-evoked contractions of isolated rat stomach fundus, IC50. As for the experimental part: The experiments were performed on male Wistar rats weighing 350 to 400 g. The animals were fasted for 24 hours before the experiments, however, they were allowed to drink tap water ad libitum. The method used was a modified version of Vane et al. /J. Pharmac. Chemother., 12, 344 (1957)/. The rats were killed by decapitation and their stomach was removed, and 3 mm wide and 20 to 30 mm long strips were cut in parallel with the greatest curvature of the stomach. The strips were incubated for 60 minutes in a 6 ml Lucite chamber filled with Tyrode solution (NaCl 136.9 mM, KCl2.7 mM, CaCl2 1.8 mM, MgCl2 1.0 mM, NaHCO3 11.9 mM, glucose 5.6 mM, NaH2 PO4 0.4 mM) warmed to 37° C. and bubbled with a gas consisting of 95% of oxygen and 5% of carbon dioxide. The strips were stretched with 0.5 g during the 60 minutes equilibration time and were washed every 20 minutes. The tension was measured isometrically by a strain gauge (Hugo Sachs) and was recorded on a Graphtech Mark VII 3101 polygraph.
Three control contractions were evoked by 5-HT added to the bath in 10^-7 M concentration (C1, C2, C3).
The effects of the test compounds were determined in 5 increasing concentrations (T2, T3, T4, T5, and T6). After determining the effect of two concentrations of the test compounds, the control 5-HT response was checked after each test measurement.
as §1

In a further experiment the target is T2, 5-HT2C receptor (Sus scrofa, UniProt K7GSR7).
T2 construct: pig brain choroid plexus membrane preparation; from tissue; host or cells: pig brain choroid plexus membrane preparation
T2 sequence (K7GSR7 1-457): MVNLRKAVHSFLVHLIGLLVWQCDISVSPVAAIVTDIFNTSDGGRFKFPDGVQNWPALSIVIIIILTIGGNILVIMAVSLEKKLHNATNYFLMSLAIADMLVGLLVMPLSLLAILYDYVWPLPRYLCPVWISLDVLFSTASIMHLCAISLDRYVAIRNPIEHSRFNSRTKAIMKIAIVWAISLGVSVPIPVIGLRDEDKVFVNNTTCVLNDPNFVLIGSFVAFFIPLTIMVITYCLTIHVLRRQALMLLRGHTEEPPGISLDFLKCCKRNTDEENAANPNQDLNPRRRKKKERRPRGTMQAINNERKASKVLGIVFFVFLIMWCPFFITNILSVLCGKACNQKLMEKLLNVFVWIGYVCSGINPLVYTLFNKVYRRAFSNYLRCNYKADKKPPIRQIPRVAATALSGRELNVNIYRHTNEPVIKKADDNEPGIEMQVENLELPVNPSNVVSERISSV
As to the kind of experiment: 5-HT2C receptor binding ([3H]mesulergine, pig brain choroid plexus membrane preparation). Particulars: tritiated mesulergine, 37° C., read-out: Inhibition of receptor binding of the radioactive ligand, 5-HT2C (Ki). As for the experimental part:
(§2) 5-HT2A and 5-HT2C receptor binding was measured according to the methods described by Leysen et al. /Mol. Pharmacol., 21, 301 (1981)/ and Pazos et al. /Eur. J. Pharmacol., 106, 539 (1985)/, respectively. 5-HT2A receptor binding was measured in rat brain frontal cortex membrane preparation using tritiated ketanserine /3-/2-(4-fluorobenzoyl)- -1-piperidinyl/ethyl-2,4-(1H,3H)-quinazoline-dione/(60-90 Ci/mmole) as ligand. 5-HT2C receptor binding was measured in pig brain choroid plexus membrane preparation using tritiated mesulergine /N'-/(8)-1,6-dimethyl-ergoline-8-yl/-N,N-dimethylsulfamide (70-85 Ci/mmole) as the ligand. Non-specific binding to 5-HT2A and 5-HT2C receptors were determined in the presence of 10 micro M cyproheptadine/4-(5H-dibenzo/a,d/cycloheptene-5-ylidene)-1-methylpiperidine/ and 1 micro M mianserine/1,2,3,4,10,14b-hexahydro-2-methyldibenzo-/c,f/pyrazino/1,2-a/azepine/, respectively. The final incubation volumes were 250 and 1000 microlitres. Samples were incubated for 15 and 30 minutes at 37° C. Incubation was stopped by adding 9 ml of ice-cold 50 mM tris(hydroxymethyl)-aminomethane hydrochloride (pH=7.7) to the reaction mixture. The samples were rapidly filtered through Whatman GF/B glass fiber filters using reduced pressure. Before use, the filters were soaked in a 0.05% poly-ethyleneimine solution for 2 to 3 hours. Radioactivity of the filters was determined by a scintillation spectrometer.

Experiment [3] has as its target T3, 5-HT2A receptor (Rattus norvegicus, UniProt P14842).
T3 construct: rat brain frontal cortex membrane preparation; from tissue; host or cells: rat brain frontal cortex membrane preparation
As to the kind of experiment: 5-HT2A receptor binding ([3H]ketanserine, rat brain frontal cortex membrane preparation). The note with it: tritiated ketanserine, 37° C., read-out: Inhibition of receptor binding of the radioactive ligand, 5-HT2A (Ki). The protocol:
as §2

T3 sequence (P14842 whole entry): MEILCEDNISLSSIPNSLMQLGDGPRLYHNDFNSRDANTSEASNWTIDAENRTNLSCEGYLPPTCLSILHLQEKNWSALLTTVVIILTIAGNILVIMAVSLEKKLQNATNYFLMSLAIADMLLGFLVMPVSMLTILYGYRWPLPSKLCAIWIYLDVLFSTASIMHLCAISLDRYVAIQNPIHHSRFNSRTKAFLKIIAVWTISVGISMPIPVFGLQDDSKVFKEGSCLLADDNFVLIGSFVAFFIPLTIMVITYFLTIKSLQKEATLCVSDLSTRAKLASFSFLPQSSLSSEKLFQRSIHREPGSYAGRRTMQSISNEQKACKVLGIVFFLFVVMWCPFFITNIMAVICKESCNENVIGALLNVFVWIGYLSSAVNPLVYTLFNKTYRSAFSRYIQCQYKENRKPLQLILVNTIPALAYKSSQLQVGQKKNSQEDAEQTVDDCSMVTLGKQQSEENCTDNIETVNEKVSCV

A word on the IC50: it is the concentration that gives 50% inhibition. In general, Ki refers to the equilibrium dissociation constant of an inhibitor or competing ligand from its target. Consider `Nc1nc(SCCN2CCN(Cc3ccc([N+](=O)[O-])cc3)CC2)nc(N)c1Cc1ccc(F)cc1` [Example 20, 2-[2-/4-(4-Nitrobenzyl)-1-piperazinyl/-ethylthio]-4,6-diamino-5-(4-fluorobenzyl)-pyrimidine], for which the IC50 is 1500 nM against 5-HT2A receptor [1] and 560 nM in experiment [2]. For the same compound, the Ki was above 100 nM on 5-HT2C receptor and 203 nM at 5-HT2A receptor [3].

At 5-HT2A receptor [1], `COc1ccc(Cc2c(N)nc(SCCN3CCN(Cc4ccccc4F)CC3)nc2N)cc1` [Example 25, 2-[2-/4-(2-Fluorobenzyl)-1-piperazinyl/-ethylthio]-4,6-diamino-5-(4-methoxybenzyl)-pyrimidine] displayed an IC50 of 280 nM. The Ki on 5-HT2C receptor was above 100 nM; at 5-HT2A receptor [3] it was 20 nM.

Take `COc1ccc(Cc2c(N)nc(SCCN3CCN(Cc4cccc(C#N)c4)CC3)nc2N)cc1` [Example 26, 2-[2-/4-(3-Cyanobenzyl)-1-piperazinyl/-ethylthio]-4,6-diamino-5-(4-methoxybenzyl)-pyrimidine]: half-maximal inhibition on 5-HT2A receptor [1] (IC50) required 260 nM. Further, the Ki was found to be 45 nM on 5-HT2C receptor and 48 nM at 5-HT2A receptor [3].

`COc1cccc(CN2CCN(CCSc3nc(N)c(Cc4ccccc4OC)c(N)n3)CC2)c1` [Example 31, 2-[2-/4-(3-Methoxybenzyl)-1-piperazinyl/-ethylthio]-4,6-diamino-5-(2-methoxybenzyl)-pyrimidine] displayed an IC50 against 5-HT2A receptor [1] of 730 nM. For the same compound, the inhibition constant (Ki) is 21 nM at 5-HT2C receptor and above 100 nM at 5-HT2A receptor [3].

For `COc1cccc(CN2CCN(CCSc3nc(N)c(Cc4ccccc4Cl)c(N)n3)CC2)c1` [Example 44, 2-[2-/4-(3-Methoxybenzyl)-1-piperazinyl/-ethylthio]-4,6-diamino-5-(2-chlorobenzyl)-pyrimidine], at 5-HT2A receptor [1], the IC50 turned out to be 650 nM. In addition, the Ki is above 100 nM at 5-HT2C receptor and 93 nM on 5-HT2A receptor [3].

`Nc1nc(SCCN2CCN(Cc3ccccc3Cl)CC2)nc(N)c1Cc1ccccc1Cl` [Example 45, 2-[2-/4-(2-Chlorobenzyl)-1-piperazinyl/ethylthio]-4,6-diamino-5-(2-chlorobenzyl)-pyrimidine] showed an IC50 against 5-HT2A receptor [1] of 430 nM. For the same compound, the Ki on 5-HT2C receptor worked out at 25 nM; on 5-HT2A receptor [3], 27 nM.

Take `Nc1nc(SCCN2CCN(Cc3ccc([N+](=O)[O-])cc3)CC2)nc(N)c1Cc1ccc(Cl)cc1` [Example 48, 2-[2-/4-(4-Nitrobenzyl)-1-piperazinyl/-ethylthio]-4,6-diamino-5-(4-chlorobenzyl)-pyrimidine]: in experiment [2], the IC50 amounted to 420 nM.

`CN(C)c1ccc(Cc2c(N)nc(SCCN3CCN(Cc4ccccc4F)CC3)nc2N)cc1` [Example 53, 2-[2-/4-(2-Fluorobenzyl)-1-piperazinyl/-ethylthio]-4,6-diamino-5-(4-dimethylamino-benzyl)pyrimidine]: half-maximal inhibition on 5-HT2A receptor [1] (IC50) was put at 470 nM. Besides, the figures for the Ki at 5-HT2C receptor and at 5-HT2A receptor [3] were above 100 nM and 15 nM, respectively.

At 5-HT2A receptor [1], `CN(C)c1ccc(Cc2c(N)nc(SCCN3CCN(Cc4cccc(Cl)c4)CC3)nc2N)cc1` [Example 56, 2-[2-/4-(3-Chlorobenzyl)-1-piperazinyl/-ethylthio]-4,6-diamino-5-(4-dimethylamino-benzyl)pyrimidine] gave an IC50 of 900 nM. Moreover, the Ki was 57 nM on 5-HT2C receptor and 38 nM on 5-HT2A receptor [3].

For `Nc1nc(SCCN2CCN(Cc3ccc([N+](=O)[O-])cc3)CC2)nc(N)c1Cc1ccc(Br)cc1` [Example 64, 2-[2-/4-(4-Nitrobenzyl)-1-piperazinyl/-ethylthio]-4,6-diamino-5-(4-bromo-benzyl)pyrimidine], the IC50 in experiment [2] was 680 nM.

Turning to `COc1cccc(CN2CCN(CCSc3nc(N)c(Cc4cc(OC)c(OC)c(OC)c4)c(N)n3)CC2)c1` [Example 65, 2-[2-/4-(3-Methoxybenzyl)-1-piperazinyl/-ethylthio]-4,6-diamino-5-(3,4,5-trimethoxy-benzyl)pyrimidine], at 5-HT2A receptor [1], the IC50 stood at 170 nM. Moreover, the Ki at 5-HT2C receptor is 42 nM; on 5-HT2A receptor [3] it was 34 nM.

Compound `COc1cc(Cc2c(N)nc(SCCN3CCN(Cc4ccccc4Cl)CC3)nc2N)cc(OC)c1OC` [Example 67, 2-[2-/4-(2-Chlorobenzyl)-1-piperazinyl/-ethylthio]-4,6-diamino-5-(3,4,5-trimethoxy-benzyl)pyrimidine] showed a concentration for half-maximal inhibition (IC50) against 5-HT2A receptor [1] of 39 nM. For the same compound, the Ki turned out to be 8.6 nM on 5-HT2C receptor and 4.6 nM at 5-HT2A receptor [3].

As for `COc1cc(Cc2c(N)nc(SCCN3CCN(Cc4ccc([N+](=O)[O-])cc4)CC3)nc2N)cc(OC)c1OC` [Example 68, 2-[2-/4-(4-Nitrobenzyl)-1-piperazinyl/-ethylthio]-4,6-diamino-5-(3,4,5-trimethoxy-benzyl)pyrimidine], the midpoint of inhibition against 5-HT2A receptor [1], the IC50, lay at 780 nM. Also, the Ki at 5-HT2C receptor is above 100 nM; at 5-HT2A receptor [3], 21 nM.

Turning to `COc1cc(Cc2c(N)nc(SCCN3CCN(Cc4cccc(C(F)(F)F)c4)CC3)nc2N)cc(OC)c1OC` [Example 69, 2-[2-/4-(3-Trifluoromethylbenzyl)-1-piperazinyl/ethylthio]-4,6-diamino-5-(3,4,5-trimethoxybenzyl)pyrimidine], the midpoint of inhibition at 5-HT2A receptor [1], the IC50, lay at 96 nM. Also, the Ki at 5-HT2C receptor was determined as 26 nM; at 5-HT2A receptor [3], 38 nM.

`COc1ccc(Cc2c(N)nc(SCCN3CCN(Cc4ccccc4Cl)CC3)nc2N)cc1` [Example 72, 2-[2-/4-(2-Chlorobenzyl)-1-piperazinyl/-ethylthio]-4,6-diamino-5-(4-methoxy-benzyl)pyrimidine]: half-maximal inhibition against 5-HT2A receptor [1] (IC50) required 84 nM. In addition, the Ki at 5-HT2C receptor was 20 nM; at 5-HT2A receptor [3], 24 nM.
